Consider 38 molecules from the SangsterLogP compilation.

A word on the logP: it is a log measure of how a compound divides between an organic and an aqueous phase. On to `COc1c(Br)cc(Br)c(Cl)c1Cl`, for which the logP stood at 4.97.

In the case of `COc1cc(Cl)c(Br)c(Cl)c1Br`, the logP is 5.29.

`COc1c(Br)cccc1Br` showed a logP of 3.42.

Turning to `COc1c(Br)c(Br)c(Br)c(Br)c1Br`, the logP is 5.43.

`COc1cc(Cl)c(Cl)cc1Cl` gave a logP of 3.95.

With `COc1ccc(Br)cc1Br`, the logP came out at 3.75.

On to `COc1c(Cl)cccc1Br`, for which the logP came out at 3.44.

As for `COc1cccc(Br)c1`, the logP is 3.23.

Molecule `COc1cc(Cl)c(Br)c(Cl)c1` yielded a logP of 4.39.

Molecule `COc1ccccc1Br` registered a logP of 2.87.

Molecule `COc1cc(Br)c(Cl)cc1Cl` showed a logP of 4.47.

`COc1c(Br)cc(Cl)c(Cl)c1Cl` displayed a logP of 4.64.

As for `COc1cc(Cl)c(Cl)c(Cl)c1Cl`, the logP was 4.57.

`COc1c(Cl)cc(Br)cc1Cl` registered a logP of 4.02.

Consider `COc1ccc(Br)cc1`, for which the logP was found to be 3.15.

Consider `COc1c(Cl)c(Cl)c(Cl)c(Cl)c1Cl`, for which the logP was determined as 5.16.

In the case of `COc1ccc(Cl)c(Cl)c1`, the logP was found to be 3.55.

The molecule `COc1ccccc1Cl` yielded a logP of 2.72.

The molecule `COc1ccc(Br)cc1Cl` registered a logP of 3.77.

Molecule `COc1c(Br)ccc(Cl)c1Cl` returned a logP of 4.47.

Molecule `COc1cc(Cl)cc(Cl)c1Br` yielded a logP of 4.39.

Molecule `COc1ccc(Cl)cc1Br` returned a logP of 3.59.

`COc1c(Cl)ccc(Cl)c1Cl` showed a logP of 3.76.

Consider `COc1c(Cl)cccc1Cl`, for which the logP stood at 3.19.

For the molecule `COc1cc(Cl)cc(Cl)c1Cl`, the log partition coefficient (logP) was determined as 4.05.

As to `COc1ccc(Br)c(Cl)c1Cl`, the logP was 4.47.

`COc1ccc(Cl)cc1Cl`: the logP turned out to be 3.46.

In the case of `COc1cc(Cl)ccc1Cl`, the lipophilicity (logP) came to 3.27.

In the case of `COc1c(Br)cc(Cl)cc1Br`, the logP worked out at 4.33.

Regarding `COc1c(Cl)c(Cl)cc(Br)c1Cl`, the logP is 4.66.

`COc1cccc(Cl)c1Cl` returned a logP of 3.3.

`COc1cc(Cl)c(Cl)c(Cl)c1Br`: the logP was 4.97.

Take `COc1c(Cl)cc(Cl)cc1Br`: the logP came to 4.

Take `COc1c(Cl)c(Cl)c(Br)c(Cl)c1Cl`: the logP came out at 5.26.

The molecule `COc1c(Br)cc(Br)c(Cl)c1Br` returned a logP of 5.29.

In turn, `COc1c(Cl)cc(Br)c(Cl)c1Cl` showed a logP of 4.66.

Molecule `COc1c(Br)c(Cl)c(Cl)c(Cl)c1Br` showed a logP of 5.55.

`COc1c(Cl)c(Cl)cc(Br)c1Br` showed a logP of 5.29.
